Laboratory results published in ChEMBL document CHEMBL5303765, “Data for DCP probe BAY-7081” (2023).

Experiments:
[1] = target: T1, Peripheral plasma membrane protein CASK (Homo sapiens) (UniProt O14936); assay: CASK SGC Tm panel (DSF); settings: for ΔTm: Compound concentration 10.0 uM
T1 sequence (whole entry): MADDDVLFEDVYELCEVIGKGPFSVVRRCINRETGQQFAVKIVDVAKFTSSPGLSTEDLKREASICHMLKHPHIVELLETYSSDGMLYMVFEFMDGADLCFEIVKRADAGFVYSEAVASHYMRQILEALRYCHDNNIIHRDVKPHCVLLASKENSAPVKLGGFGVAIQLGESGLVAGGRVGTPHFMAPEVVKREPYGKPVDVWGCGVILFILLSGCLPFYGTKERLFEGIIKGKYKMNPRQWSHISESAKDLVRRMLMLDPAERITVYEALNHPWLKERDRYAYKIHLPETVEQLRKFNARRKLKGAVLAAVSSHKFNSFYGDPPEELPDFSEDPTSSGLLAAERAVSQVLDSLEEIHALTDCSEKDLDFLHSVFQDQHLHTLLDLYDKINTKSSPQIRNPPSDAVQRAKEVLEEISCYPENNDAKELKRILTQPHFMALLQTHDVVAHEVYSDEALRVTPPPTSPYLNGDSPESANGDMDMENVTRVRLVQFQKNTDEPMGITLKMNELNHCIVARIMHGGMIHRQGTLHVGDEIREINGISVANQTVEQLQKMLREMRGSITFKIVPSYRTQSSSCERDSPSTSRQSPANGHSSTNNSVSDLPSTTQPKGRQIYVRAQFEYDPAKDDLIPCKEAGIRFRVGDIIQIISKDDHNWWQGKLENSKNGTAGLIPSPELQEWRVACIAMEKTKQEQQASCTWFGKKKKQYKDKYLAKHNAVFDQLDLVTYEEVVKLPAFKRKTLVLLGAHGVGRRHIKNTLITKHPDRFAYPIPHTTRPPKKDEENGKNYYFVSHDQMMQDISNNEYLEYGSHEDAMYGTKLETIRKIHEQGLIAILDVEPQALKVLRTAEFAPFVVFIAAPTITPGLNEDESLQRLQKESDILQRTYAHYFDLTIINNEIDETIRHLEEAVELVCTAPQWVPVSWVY

[2] = target: Sodium-dependent serotonin transporter (Homo sapiens) (UniProt P31645); settings: Compound concentration 10.0 uM
[3] = target: D(3) dopamine receptor (Homo sapiens) (UniProt P35462); settings: Compound concentration 10.0 uM
[4] = target: Tyrosine-protein kinase ABL1 (Homo sapiens) (UniProt P00519); assay: ABL1 SGC Tm panel (DSF); settings: for ΔTm: Compound concentration 10.0 uM
[5] = target: T2, Serine/threonine-protein kinase ULK1 (Homo sapiens) (UniProt O75385); assay: ULK1 SGC Tm panel (DSF); settings: for ΔTm: Compound concentration 10.0 uM
T2 sequence (whole entry): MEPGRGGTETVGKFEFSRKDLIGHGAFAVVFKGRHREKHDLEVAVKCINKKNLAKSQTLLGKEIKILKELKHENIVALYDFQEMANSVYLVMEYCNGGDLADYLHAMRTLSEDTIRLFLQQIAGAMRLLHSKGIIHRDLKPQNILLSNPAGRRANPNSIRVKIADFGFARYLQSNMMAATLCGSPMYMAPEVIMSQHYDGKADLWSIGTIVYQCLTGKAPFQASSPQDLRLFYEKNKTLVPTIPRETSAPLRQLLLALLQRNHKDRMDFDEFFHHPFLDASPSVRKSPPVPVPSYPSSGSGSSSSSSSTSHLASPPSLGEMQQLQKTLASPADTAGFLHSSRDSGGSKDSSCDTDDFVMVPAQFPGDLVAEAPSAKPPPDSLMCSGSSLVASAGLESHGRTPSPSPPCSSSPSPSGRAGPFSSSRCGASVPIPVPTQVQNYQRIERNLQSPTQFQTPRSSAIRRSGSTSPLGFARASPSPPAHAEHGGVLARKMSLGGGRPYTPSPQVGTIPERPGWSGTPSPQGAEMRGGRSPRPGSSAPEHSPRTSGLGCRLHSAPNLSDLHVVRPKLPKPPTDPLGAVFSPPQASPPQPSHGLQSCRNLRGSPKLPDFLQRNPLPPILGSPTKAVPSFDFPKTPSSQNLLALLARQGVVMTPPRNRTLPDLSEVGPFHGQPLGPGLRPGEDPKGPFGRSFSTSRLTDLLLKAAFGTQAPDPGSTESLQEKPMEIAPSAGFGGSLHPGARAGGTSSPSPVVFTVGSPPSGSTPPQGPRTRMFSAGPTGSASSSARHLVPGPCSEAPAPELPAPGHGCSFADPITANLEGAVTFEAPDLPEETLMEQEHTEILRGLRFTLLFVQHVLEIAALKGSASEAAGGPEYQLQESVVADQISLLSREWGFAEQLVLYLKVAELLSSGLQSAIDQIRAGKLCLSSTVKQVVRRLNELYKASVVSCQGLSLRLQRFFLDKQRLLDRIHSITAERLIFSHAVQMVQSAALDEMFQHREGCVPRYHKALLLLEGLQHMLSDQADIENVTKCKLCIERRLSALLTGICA

[6] = target: Serine/threonine-protein kinase MRCK alpha (Homo sapiens) (UniProt Q5VT25); assay: CDC42BPA SGC Tm panel (DSF); settings: for ΔTm: Compound concentration 10.0 uM
[7] = target: D(1A) dopamine receptor (Homo sapiens) (UniProt P21728); settings: Compound concentration 10.0 uM
[8] = target: T3, Aurora kinase A (Homo sapiens) (UniProt O14965); assay: STK6 SGC Tm panel (DSF); settings: for ΔTm: Compound concentration 10.0 uM
T3 sequence (whole entry): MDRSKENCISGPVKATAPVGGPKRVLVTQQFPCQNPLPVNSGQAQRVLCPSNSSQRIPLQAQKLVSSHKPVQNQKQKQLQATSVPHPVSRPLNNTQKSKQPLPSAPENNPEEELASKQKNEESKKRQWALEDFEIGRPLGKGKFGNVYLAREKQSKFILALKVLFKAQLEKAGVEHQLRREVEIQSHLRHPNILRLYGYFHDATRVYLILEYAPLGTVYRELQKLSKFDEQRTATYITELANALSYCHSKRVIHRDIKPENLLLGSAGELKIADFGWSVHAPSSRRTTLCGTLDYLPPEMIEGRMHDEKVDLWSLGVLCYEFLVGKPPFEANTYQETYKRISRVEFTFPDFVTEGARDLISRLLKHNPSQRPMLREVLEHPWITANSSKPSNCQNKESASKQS

[9] = target: 5-hydroxytryptamine receptor 2B (Homo sapiens) (UniProt P41595); settings: Compound concentration 10.0 uM
Chain of 5-hydroxytryptamine receptor 2B (Homo sapiens) (P41595 whole entry): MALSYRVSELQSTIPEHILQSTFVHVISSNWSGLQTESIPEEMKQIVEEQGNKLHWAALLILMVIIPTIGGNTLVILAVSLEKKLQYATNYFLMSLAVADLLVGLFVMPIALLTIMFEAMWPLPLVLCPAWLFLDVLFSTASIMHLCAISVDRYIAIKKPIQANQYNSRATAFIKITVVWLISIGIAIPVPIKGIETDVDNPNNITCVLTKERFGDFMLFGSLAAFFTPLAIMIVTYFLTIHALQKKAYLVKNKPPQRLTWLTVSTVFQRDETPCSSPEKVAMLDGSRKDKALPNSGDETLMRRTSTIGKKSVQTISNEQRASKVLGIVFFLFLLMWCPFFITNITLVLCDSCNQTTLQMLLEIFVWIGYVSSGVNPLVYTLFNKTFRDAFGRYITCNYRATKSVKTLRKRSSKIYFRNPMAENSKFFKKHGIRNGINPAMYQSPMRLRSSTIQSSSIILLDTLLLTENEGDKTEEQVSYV

Chain of Tyrosine-protein kinase ABL1 (Homo sapiens) (P00519 whole entry): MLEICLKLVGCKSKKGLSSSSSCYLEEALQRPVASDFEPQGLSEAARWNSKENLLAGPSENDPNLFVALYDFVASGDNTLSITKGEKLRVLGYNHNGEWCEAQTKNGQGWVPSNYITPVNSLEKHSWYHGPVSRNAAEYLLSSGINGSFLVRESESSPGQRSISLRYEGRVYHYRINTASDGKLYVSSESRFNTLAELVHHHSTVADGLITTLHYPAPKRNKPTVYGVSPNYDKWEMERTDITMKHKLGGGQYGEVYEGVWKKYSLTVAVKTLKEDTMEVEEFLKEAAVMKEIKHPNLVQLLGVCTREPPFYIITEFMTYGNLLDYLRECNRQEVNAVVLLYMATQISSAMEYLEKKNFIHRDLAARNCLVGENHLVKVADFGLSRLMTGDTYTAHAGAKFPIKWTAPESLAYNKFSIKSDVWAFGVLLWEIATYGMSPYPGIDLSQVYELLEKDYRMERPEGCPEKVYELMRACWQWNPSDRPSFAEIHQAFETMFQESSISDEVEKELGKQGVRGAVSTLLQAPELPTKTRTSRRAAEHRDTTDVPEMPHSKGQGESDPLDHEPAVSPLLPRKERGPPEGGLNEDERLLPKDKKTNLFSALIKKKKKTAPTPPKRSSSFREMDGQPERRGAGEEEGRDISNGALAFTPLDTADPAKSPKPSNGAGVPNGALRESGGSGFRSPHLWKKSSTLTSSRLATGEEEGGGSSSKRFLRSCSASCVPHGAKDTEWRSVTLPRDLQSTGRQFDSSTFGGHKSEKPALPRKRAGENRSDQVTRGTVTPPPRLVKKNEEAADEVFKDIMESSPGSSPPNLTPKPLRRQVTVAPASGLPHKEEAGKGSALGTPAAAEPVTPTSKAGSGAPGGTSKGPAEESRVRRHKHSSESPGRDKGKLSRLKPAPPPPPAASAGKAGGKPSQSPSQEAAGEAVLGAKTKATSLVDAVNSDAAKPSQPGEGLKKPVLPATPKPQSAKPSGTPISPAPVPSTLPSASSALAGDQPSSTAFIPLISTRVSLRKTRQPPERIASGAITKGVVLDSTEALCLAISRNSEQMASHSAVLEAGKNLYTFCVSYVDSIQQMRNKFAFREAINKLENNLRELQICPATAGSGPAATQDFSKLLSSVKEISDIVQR
Chain of Serine/threonine-protein kinase MRCK alpha (Homo sapiens) (Q5VT25 whole entry, looked up): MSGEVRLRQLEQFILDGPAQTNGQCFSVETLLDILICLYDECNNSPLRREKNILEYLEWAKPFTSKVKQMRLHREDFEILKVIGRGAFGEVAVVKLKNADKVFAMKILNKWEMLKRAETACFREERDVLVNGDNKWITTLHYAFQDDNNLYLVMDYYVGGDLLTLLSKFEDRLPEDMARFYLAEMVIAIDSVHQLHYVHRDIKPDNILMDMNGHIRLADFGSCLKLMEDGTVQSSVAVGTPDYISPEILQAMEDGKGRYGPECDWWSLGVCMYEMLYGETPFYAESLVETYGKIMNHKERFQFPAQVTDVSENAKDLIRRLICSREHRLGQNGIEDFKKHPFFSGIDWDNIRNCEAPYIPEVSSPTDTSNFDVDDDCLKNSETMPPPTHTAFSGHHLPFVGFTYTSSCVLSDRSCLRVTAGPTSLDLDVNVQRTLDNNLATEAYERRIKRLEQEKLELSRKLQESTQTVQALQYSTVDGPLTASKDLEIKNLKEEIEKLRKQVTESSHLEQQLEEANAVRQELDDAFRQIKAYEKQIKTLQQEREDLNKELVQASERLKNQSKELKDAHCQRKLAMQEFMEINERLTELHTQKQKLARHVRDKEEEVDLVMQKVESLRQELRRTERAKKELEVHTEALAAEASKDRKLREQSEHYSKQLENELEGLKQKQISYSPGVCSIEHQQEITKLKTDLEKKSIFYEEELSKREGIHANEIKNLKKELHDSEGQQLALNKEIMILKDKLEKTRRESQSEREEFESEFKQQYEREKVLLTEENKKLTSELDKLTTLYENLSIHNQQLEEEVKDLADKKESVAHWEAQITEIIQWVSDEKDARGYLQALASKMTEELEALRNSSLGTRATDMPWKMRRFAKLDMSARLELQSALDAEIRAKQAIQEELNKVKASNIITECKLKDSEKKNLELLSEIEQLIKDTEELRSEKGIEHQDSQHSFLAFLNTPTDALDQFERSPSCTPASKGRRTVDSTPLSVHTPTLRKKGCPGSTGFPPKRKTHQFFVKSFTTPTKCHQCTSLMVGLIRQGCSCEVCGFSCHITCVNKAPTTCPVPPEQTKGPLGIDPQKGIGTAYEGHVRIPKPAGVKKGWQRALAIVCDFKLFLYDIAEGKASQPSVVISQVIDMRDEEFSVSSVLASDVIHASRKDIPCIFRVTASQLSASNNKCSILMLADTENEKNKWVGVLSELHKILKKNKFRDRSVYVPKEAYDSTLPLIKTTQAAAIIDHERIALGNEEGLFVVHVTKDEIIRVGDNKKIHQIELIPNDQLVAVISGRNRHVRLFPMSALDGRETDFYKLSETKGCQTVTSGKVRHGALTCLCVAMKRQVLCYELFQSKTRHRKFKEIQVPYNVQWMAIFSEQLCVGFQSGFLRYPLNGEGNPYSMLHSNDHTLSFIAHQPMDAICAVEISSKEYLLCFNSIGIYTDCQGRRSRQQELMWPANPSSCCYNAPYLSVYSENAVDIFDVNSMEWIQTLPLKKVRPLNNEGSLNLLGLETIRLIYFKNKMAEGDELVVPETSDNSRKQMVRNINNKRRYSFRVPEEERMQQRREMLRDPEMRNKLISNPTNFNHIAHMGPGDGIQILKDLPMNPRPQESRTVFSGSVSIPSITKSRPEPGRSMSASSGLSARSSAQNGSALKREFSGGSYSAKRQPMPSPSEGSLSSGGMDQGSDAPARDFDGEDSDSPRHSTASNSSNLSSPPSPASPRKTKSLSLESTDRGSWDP
Chain of D(3) dopamine receptor (Homo sapiens) (P35462 whole entry): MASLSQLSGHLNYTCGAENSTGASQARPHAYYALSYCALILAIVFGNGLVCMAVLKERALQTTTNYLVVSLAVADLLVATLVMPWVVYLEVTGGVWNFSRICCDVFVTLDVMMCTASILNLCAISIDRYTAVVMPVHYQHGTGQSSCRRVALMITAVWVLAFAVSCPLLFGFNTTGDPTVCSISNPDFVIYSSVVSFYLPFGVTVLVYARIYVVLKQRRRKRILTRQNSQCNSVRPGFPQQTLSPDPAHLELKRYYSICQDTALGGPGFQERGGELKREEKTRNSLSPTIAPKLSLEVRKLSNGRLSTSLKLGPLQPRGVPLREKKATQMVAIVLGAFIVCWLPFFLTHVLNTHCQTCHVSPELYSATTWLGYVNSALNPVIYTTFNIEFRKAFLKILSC
Chain of D(1A) dopamine receptor (Homo sapiens) (P21728 whole entry): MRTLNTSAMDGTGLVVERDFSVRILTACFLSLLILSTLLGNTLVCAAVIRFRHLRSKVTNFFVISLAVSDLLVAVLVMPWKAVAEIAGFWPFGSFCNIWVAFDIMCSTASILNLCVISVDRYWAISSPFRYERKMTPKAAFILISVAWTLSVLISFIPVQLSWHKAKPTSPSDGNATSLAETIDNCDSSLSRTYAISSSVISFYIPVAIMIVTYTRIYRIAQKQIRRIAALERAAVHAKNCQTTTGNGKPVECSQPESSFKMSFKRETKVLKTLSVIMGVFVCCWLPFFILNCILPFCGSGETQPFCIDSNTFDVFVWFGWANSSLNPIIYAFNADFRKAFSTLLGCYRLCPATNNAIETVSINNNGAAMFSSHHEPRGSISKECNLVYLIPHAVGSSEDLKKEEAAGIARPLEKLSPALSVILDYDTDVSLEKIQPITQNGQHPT
Chain of Sodium-dependent serotonin transporter (Homo sapiens) (P31645 whole entry, looked up): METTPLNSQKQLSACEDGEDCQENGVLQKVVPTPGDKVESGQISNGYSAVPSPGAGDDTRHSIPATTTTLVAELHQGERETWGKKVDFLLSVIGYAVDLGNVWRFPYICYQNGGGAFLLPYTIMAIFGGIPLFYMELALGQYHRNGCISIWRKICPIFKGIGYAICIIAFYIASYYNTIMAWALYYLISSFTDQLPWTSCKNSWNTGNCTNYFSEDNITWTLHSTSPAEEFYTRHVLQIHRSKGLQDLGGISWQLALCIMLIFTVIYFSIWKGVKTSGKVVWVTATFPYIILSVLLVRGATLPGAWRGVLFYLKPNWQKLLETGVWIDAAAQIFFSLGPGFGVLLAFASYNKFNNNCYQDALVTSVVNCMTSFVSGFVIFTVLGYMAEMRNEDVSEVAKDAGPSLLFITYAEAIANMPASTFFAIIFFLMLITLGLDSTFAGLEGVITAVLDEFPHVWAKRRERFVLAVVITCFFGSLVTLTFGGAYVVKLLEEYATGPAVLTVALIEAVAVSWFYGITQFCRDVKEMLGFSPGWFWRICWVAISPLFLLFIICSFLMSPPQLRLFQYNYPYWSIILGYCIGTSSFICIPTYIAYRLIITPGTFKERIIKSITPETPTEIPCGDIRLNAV

| SMILES | delta Tm Staurosporine positive control [1] | ΔTm [1] | inhibition [2] [%] | inhibition [3] [%] | delta Tm Staurosporine positive control [4] | ΔTm [4] | delta Tm Staurosporine positive control [5] | ΔTm [5] | delta Tm Staurosporine positive control [6] | ΔTm [6] | inhibition [7] [%] | delta Tm Staurosporine positive control [8] | ΔTm [8] | inhibition [9] [%] |
| --- | --- | --- | --- | --- | --- | --- | --- | --- | --- | --- | --- | --- | --- | --- |
| CCC[C@@H]1CNCc2c1[nH]c(=O)c(C#N)c2N1CCC2(CC1)CC2 | 4.28 | -0.0745 | -1.15 | -9.68 | 8.44 | 0.0781 | 14 | 0.234 | 3.2 | 0.159 | 11 | 20.5 | -0.0175 | 33 |
| CCC[C@H]1CNCc2c1[nH]c(=O)c(C#N)c2N1CCC2(CC1)CC2 | 4.28 | -0.242 | 6.23 | 12.3 | 8.44 | 0.111 | 14 | 0.0473 | 3.2 | 0.0908 | -2.37 | 20.5 | 0.00646 | 44.9 |
